# According to publication PMC9088073, “Discovery of 2-Phenylquinolines with Broad-Spectrum Anti-coronavirus Activity” (ACS Medicinal Chemistry Letters, 2022):
# Tests used:
# [1] = tested on: VeroE6 cells; details: uninfected VeroE6 cells, MTS assay; mean ± SD of duplicate experiments
# [2] = in vitro; details: chlorocebus sabaeus
# [3] = tested on: SARS-CoV-2; assay: microbe, parasite or virus in culture; assay type: cell-based; details: Severe acute respiratory syndrome coronavirus 2; […]; mean ± SD of duplicate experiments; read-out: Anti-SARS-CoV-2 activity EC50
smiles,measurement,setting,value
CCCOc1ccc(-c2cc(OCCN3CCN(Cc4ccccc4)CC3)c3cccc(OC)c3n2)cc1 [Compound 5f],VeroE6 cells CC50,[1],lacked cytotoxicity
same,CC50,[2],> 100 µM
same,melting point,,95 to 97 °C
same,EC50,[3],35.9 ± 32.2 µM
